Results taken from patent US20230227492A1 (priority 2020, published 2023).
Read-outs that look alike come from different tables or passages of the source.

Key:
[1] = Liver S9 Fraction Stability Assay
[2] = biological target: T1, recombinant human aromatase (Homo sapiens, UniProt P11511); test: Aromatization by recombinant human aromatase (CYP19+P450 reductase Supersomes); conditions: 10 μM, 37° C.
T1 sequence (P11511 1-503): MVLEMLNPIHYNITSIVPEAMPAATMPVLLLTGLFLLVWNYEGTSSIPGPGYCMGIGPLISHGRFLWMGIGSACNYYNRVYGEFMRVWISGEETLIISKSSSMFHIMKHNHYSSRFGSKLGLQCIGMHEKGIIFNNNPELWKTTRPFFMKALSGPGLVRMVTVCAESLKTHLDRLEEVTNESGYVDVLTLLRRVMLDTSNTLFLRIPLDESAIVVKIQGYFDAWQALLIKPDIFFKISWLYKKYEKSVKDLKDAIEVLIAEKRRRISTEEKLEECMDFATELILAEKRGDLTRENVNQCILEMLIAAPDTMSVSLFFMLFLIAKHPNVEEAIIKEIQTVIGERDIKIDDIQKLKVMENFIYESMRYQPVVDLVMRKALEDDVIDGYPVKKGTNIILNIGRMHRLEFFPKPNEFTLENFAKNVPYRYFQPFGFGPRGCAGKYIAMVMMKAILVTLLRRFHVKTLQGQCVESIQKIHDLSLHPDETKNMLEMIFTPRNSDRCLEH

[3] = biological target: T2, full-length, untagged, human estrogen receptors (ERα) (Homo sapiens, UniProt P03372); test: ERα fluorescence polarization (FP) binding assay
T2 construct: insect cell-expressed, full-length, untagged, human estrogen receptors; purchased Life Technologies (Carlsbad, Calif.); host or cells: insect cells
Experimental: (§1) Receptor Binding Assay Information—In certain of the following examples, hormone receptor binding assays were used to determine the receptor binding activities of monomeric compound embodiments to androgen (AR), progesterone (PR), estrogen alpha (ERα) or glucocorticoid (GR) receptors. For AR, PR or ERα, the respective receptors are added to novel, tight-binding, selective ligands tagged with a fluorescent molecule, to form a receptor-ligand complex with a high polarization value. This complex is then added to individual monomeric compound embodiments that are contained in well plates. If the monomeric compound binds to the respective receptors, it displaces the fluorescent ligand from the complex, resulting in a low polarization value. In such embodiments, the monomeric compound is characterized as a competitor. […] In such embodiments, the monomeric compound is characterized as a noncompetitor. The shift in polarization value in the presence of the monomeric compound is used to determine the relative affinity of monomeric compound for the receptor.
For the androgen, progesterone, and estrogen receptor binding assays described herein, the preparation of reagents and test procedures is performed according to the manufacturer's instructions (Life Technologies, Carlsbad, Calif.). The plates are covered to protect the reagents from light and incubated at 20-25° C. for 4-8 hrs.
For ERα data, the ERα fluorescence polarization (FP) assay was used, which provides a sensitive and efficient method for high-throughput screening of potential ER ligands. The kit uses insect cell-expressed, full-length, untagged, human estrogen receptors and a tight-binding, fluorescent estrogen ligand (Fluormone™ ES2) in a homogenous mix-and-read assay format. ERα was added to a fluorescent estrogen ligand to form an ERα/Fluormone™ ES2 complex. This complex was then added to individual compound embodiments contained in 96-well plates. […] The change in polarization value in the presence of a compound embodiment was used to determine relative affinity of a compound embodiment for ERα.

[4] = biological target: T3, human PR ligand-binding domain tagged with GST [PR-LBD (GST)] (Homo sapiens, UniProt P06401); test: PR fluorescence polarization (FP) binding assay; conditions: Fluormone PL Green
T3 construct: purchased Life Technologies (Carlsbad, Calif.)
T3 sequence (P06401 679-913 limits assumed): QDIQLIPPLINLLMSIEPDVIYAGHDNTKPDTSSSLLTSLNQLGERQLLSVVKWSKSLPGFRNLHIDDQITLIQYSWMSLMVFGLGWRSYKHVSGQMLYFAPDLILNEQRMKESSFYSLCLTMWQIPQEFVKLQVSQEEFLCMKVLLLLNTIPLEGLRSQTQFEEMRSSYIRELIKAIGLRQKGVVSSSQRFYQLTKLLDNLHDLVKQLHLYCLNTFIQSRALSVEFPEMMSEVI
Experimental: as §1
For the androgen, progesterone, and estrogen receptor binding assays described herein, the preparation of reagents and test procedures is performed according to the manufacturer's instructions (Life Technologies, Carlsbad, Calif.). The plates are covered to protect the reagents from light and incubated at 20-25° C. for 4-8 hrs. The fluorescence polarization of the samples is measured with 485 nm excitation and 530 nm emission interference filters.
In this example, PR binding activity was assessed using the PR fluorescence polarization (FP) assay, which provides a sensitive and efficient method for high-throughput screening of potential PR ligands. The kit uses human PR ligand-binding domain tagged with GST [PR-LBD (GST)], and a tight-binding, selective fluorescent progesterone ligand (Fluormone™ PL Green) in a homogenous mix-and-read assay format. Progesterone receptor [PR-LBD (GST)] was added to a fluorescent progesterone ligand (Fluormone™ PL Green) to form a PR-LBD (GST)/Fluormone™ PL Green complex resulting in a high polarization value. This complex was then added to individual compound embodiments in 96-well plates. Competitors displaced the fluorescent Fluormone™ PL Green ligand from the PR-LBD (GST)/Fluormone™ PL Green complex, causing the fluorescent ligand to tumble rapidly during its fluorescence lifetime, resulting in a low polarization value. […] The shift in polarization value in the presence of compound embodiments was used to determine relative affinity of compound embodiments for PR-LBD (GST). The fluorescence polarization of the samples was measured with 485 nm excitation and 530 nm emission interference filters. Results for monomeric compound embodiments wherein the R^2 groups is not present (such as to test compound activity after R^2 cleavage) are provided in Table 4.

castrated weanling rats = conditions: rat, in vivo
[5] = human liver S9, W/O NADPH, 1 μM
[6] = human liver S9, W/O NADPH, 10 μM
[7] = human liver S9, With NADPH, 1 μM
[8] = human liver S9, With NADPH, 10 μM

T2 sequence (P03372 whole entry): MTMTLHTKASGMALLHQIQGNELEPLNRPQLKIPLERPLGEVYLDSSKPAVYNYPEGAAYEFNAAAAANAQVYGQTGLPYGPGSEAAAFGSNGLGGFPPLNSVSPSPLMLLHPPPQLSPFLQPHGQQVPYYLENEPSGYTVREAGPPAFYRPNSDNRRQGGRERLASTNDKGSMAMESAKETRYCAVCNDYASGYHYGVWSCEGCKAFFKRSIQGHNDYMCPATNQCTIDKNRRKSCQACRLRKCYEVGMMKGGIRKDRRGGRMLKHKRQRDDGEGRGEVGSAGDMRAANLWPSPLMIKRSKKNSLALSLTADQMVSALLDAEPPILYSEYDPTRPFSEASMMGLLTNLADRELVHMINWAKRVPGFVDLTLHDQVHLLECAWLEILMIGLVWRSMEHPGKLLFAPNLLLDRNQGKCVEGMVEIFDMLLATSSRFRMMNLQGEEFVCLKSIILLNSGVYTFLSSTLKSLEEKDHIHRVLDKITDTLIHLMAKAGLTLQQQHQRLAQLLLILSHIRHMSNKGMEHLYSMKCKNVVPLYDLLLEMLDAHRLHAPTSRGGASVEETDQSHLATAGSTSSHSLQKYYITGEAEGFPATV

7-α-methylnortestosterone dodecylcarbonate [CDB-4884]
% parent molecule remaining after 2 hours at 37° C. [1, 5]: 89% | % parent molecule remaining after 2 hours at 37° C. [1, 6]: 75% | % parent molecule remaining after 2 hours at 37° C. [1, 7]: 75% | % parent molecule remaining after 2 hours at 37° C. [1, 8]: 82%

7α-t-Butyl Testosterone [CDB-4919]
% remaining at 60 min [2]: 92.0% | IC50 ([3]; fluorescence polarization, Fluormone ES2, read-out: IC50 (nM) ERα): 10400 nM | IC50 ([4]; read-out: IC50 (nM) PR binding): 1400 nM

C[C@@H]1CC2=CC(=O)CC[C@@H]2[C@@H]2[C@@H]1[C@@H]1CC[C@H](O)[C@@]1(C)C[C@@H]2C [CDB-1321, dimethandrolone, reference compound]
% remaining at 60 min [2]: 85.3%

C[C@@H]1CC2=CC(=O)CCC2C2C1C1CC[C@H](OC(=O)CCC(=O)O[C@H]3CCC4C5C(C6CCC(=O)C=C6C[C@H]5C)[C@@H](C)C[C@@]43C)[C@@]1(C)C[C@@H]2C (some centres unmarked) [CDB-4866]
AUC (Ventral Prostate) (castrated weanling rats): 1464 mg*week | duration of levator ani muscle weight increase (anabolic effects) (castrated weanling rats): sustained until Day 99 (Week 14) | duration of ventral prostate weight increase (androgenic effects) (castrated weanling rats): sustained until Day 99 (Week 14) | ventral prostate gland weights relative to vehicle (castrated weanling rats): increased

C[C@]12CCC(=O)C=C1CCC1C2CC[C@@]2(C)C1CC[C@@H]2OC(=O)CCC(=O)O[C@H]1CCC2C3CCC4=CC(=O)CC[C@]4(C)C3CC[C@@]21C (some centres unmarked) [CDB-4877]
AUC (Levator ani muscle) (castrated weanling rats): 2173 mg*week | AUC (Ventral Prostate) (castrated weanling rats): 524.4 mg*week | duration of ventral prostate weight increase (androgenic effects) (castrated weanling rats): sustained until Day 99 (Week 14) | ventral prostate gland weights relative to vehicle (castrated weanling rats): increased

C#C[C@]1(OC(=O)CCCCCCCCCCC)CCC2C3CCC4=CC(=O)CCC4C3CC[C@@]21CC (some centres unmarked) [CDB-4880]
% parent molecule remaining after 2 hours at 37° C. [1, 5]: 78% | % parent molecule remaining after 2 hours at 37° C. [1, 6]: 86% | % parent molecule remaining after 2 hours at 37° C. [1, 7]: 54% | % parent molecule remaining after 2 hours at 37° C. [1, 8]: 76%

CCCCCCCCCCCCOC(=O)O[C@H]1CCC2C3CCC4=CC(=O)CC[C@]4(C)C3CC[C@@]21C (some centres unmarked) [CDB-4883, testosterone dodecylcarbonate]
% parent molecule remaining after 2 hours at 37° C. [1, 5]: 74% | % parent molecule remaining after 2 hours at 37° C. [1, 6]: 84% | % parent molecule remaining after 2 hours at 37° C. [1, 7]: 64% | % parent molecule remaining after 2 hours at 37° C. [1, 8]: 85%

C[C@@H]1CC2=CC(=O)CC[C@@H]2C2C1C1CC[C@H](OC(=O)CCNC(=O)CCC(=O)O[C@H]3CCC4C5C([C@@H](C)C[C@@]43C)[C@H]3CCC(=O)C=C3C[C@H]5C)[C@@]1(C)C[C@@H]2C (some centres unmarked) [CDB-4886]
duration of levator ani muscle weight increase (anabolic effects) (castrated weanling rats): sustained until Day 99 (Week 14)

C#C[C@]1(OC(=O)OC(C)(C)C)CCC2C3CCC4=CC(=O)CCC4C3CC[C@@]21CC (some centres unmarked) [CDB-4889]
% parent molecule remaining after 2 hours at 37° C. [1, 5]: 100≤ % | % parent molecule remaining after 2 hours at 37° C. [1, 6]: 100≤ % | % parent molecule remaining after 2 hours at 37° C. [1, 7]: 12% | % parent molecule remaining after 2 hours at 37° C. [1, 8]: 56%

CCCCCCCCCCCCOC(=O)O[C@H]1CCC2C3CCC4=CC(=O)CCC4=C3[C@@H](C)C[C@@]21C (some centres unmarked) [CDB-4892]
% parent molecule remaining after 2 hours at 37° C. [1, 5]: 88% | % parent molecule remaining after 2 hours at 37° C. [1, 6]: 77% | % parent molecule remaining after 2 hours at 37° C. [1, 7]: 75% | % parent molecule remaining after 2 hours at 37° C. [1, 8]: 82%

CC1CC2=CC(=O)CCC2(C)C2CCC3(C)C(O)CCC3C12 (stereo not drawn) [CDB-4911, 7β-methyl testosterone]
% remaining at 15 min [2]: 62.3% | % remaining at 30 min [2]: 33.5% | % remaining at 60 min [2]: 3.4% | IC50 ([4]; read-out: IC50 (nM) PR binding): 415 nM

CC[C@@H]1CC2=CC(=O)CC[C@]2(C)C2CC[C@@]3(C)C(CC[C@@H]3O)C21 (stereo partly drawn) [CDB-4918, 7α-ethyl testosterone]
% remaining at 15 min [2]: 33.0% | % remaining at 30 min [2]: 0.2% | % remaining at 60 min [2]: 0.1% | IC50 [3]: 10500 nM | IC50 ([4]; IC50 (nM) PR binding): 672 nM

CC12CCC(=O)C=C1CC(c1ccccc1)C1C2CCC2(C)C(O)CCC12 (stereo not drawn) [CDB-4920, 7α-Phenyl Testosterone]
% remaining at 60 min [2]: 63.6% | IC50 [3]: 13500 nM | IC50 ([4]; IC50 (nM) PR binding): 463 nM

CC12CCC(=O)C=C1CC(c1ccccc1)C1C2CCC2(C)C(O)CCC12 (stereo not drawn) [CDB-4921, 7β-Phenyl Testosterone]
% remaining at 60 min [2]: 62.5% | IC50 ([4]; read-out: IC50 (nM) PR binding): 787 nM

CCC1CC2=CC(=O)CCC2(C)C2CCC3(C)C(O)CCC3C12 (stereo not drawn) [CDB-4924, 7β-ethyl testosterone]
% remaining at 15 min [2]: 58.2% | % remaining at 30 min [2]: 25.4% | % remaining at 60 min [2]: 0.3% | IC50 ([4]; read-out: IC50 (nM) PR binding): 842 nM

DMA linolate [CDB-4895]
% parent molecule remaining after 2 hours at 37° C. [1, 5]: 51% | % parent molecule remaining after 2 hours at 37° C. [1, 6]: 62% | % parent molecule remaining after 2 hours at 37° C. [1, 7]: 55% | % parent molecule remaining after 2 hours at 37° C. [1, 8]: 60%

DMA oleate [CDB-4893]
% parent molecule remaining after 2 hours at 37° C. [1, 5]: 60% | % parent molecule remaining after 2 hours at 37° C. [1, 6]: 55% | % parent molecule remaining after 2 hours at 37° C. [1, 7]: 54% | % parent molecule remaining after 2 hours at 37° C. [1, 8]: 51%
